Experimental data published in patent US11039997B2, “Cosmetic, dermatic, protective compositions comprising phospholipids, lecithins with peptides and at least one acetylating compound” (priority 2005, dated 2021).
Blank lines part the entries; values can stand above or below the compound they belong to.

Legend:
[1] = biological target: T1, paf receptors of formaldehyde-treated platelets (Homo sapiens, UniProt P25105); test: Binding of [3H]alkyl-paf to formaldehyde-fixed platelets (FIGS. 6 and 7); settings: 30 min; for inhibition of bound [3H]alkyl-paf to stiffened platelets: FIG. 7, [3H]alkyl-paf 0.65 nM, 20° C., n=4
T1 construct: endogenous in cells; host or cells: washed platelets fixed with 1% formaldehyde for 30 min
Experimental: An extract of whole blood, namely “biological paf” replaces [^3H]alkyl-paf out of the binding and bind to similar alkyl receptors. This competitive inhibition is paralleled with similar effects of synthetic paf and with Ginkgoloides wherein WEB 2086 is used here as the known guiding substance for chlorobenzo(dia)zepines.
“Biological paf” is used here for the first time as non-separated ethanol extract of whole blood (without HPLC). This dry extract is diluted before it is quantified using aggregation of rabbit platelets in the presence of aspirin and CP/CPK. The novel methods allow for the first time testings without albumin so that alkyl ligands with lower cell affinity compared to albumin can bind in a detectable manner. For example, alkyl lipids without the choline group (alkyl-LPA) bind otherwise in deeper regions of the membranes of untreated cells and/or are rapidly incorporated into free albumin. In addition, the method is independent from calcium so that also calcium-independent alkyl ligands can be inhibited here (e.g. lyso paf). The clinical success against alkyl ligands is thus supported and can be carried out by skilled persons.
The FIGS. 5 to 7 thus show the novel screening procedure solves a novel technical problem, namely the variety of damaging alkyl lipids. The quantification is easier using fixed cells as the difficult acetylation step of alkyl lipids is removed which is required for calcium dependent quantification methods. Using fixed cells, cell lines also labelled antibodies and/or soluble transport-binding proteins can be tested and produced.
(§1) FIGS. 5 to 7 investigated for the first time binding of [^3H]alkyl-paf or [^3H]acetyl group after treatment with formaldehyde (1%, 30 min) comparing different temperatures, indicated concentrations and said Ginkgoloides. The allosteric binding of [^3H]alkyl groups was reached only at 20° C. while [^3H]acetyl groups bound at 4° C. excluding allosteric effects.
Platelets were treated with formaldehyde (1%, 30 min, n=6). Values are expressed as bound [^3H]alkyl-paf to […]. […]

[2] = system: washed aspirinated platelets; test: Binding of [3H]alkyl-paf / [3H]alkyl-lyso paf to washed aspirinated platelets and formation of AAGPC, LA-paf (FIG. 2); type: cell-based, human; settings: FIG. 2C; normolipidemic platelets, [3H]-alkyl-lyso paf 0.065 nM, 40 nM antagonist, 0.25% BSA
Experimental: These women with “OMIH”-syndrome show overweight (aged 34±11 years, BMI: […]), raised LDL (167±15 mg/dl, HDL: 76±41 mg/dl) and triglyceride levels (206±27 mg/dl) borderline hypertension (125±13/88±10 mmHg) and disturbed glucose tolerance (1 h: 170±61 mg/dl).
Ginkgoloides with free albumin (BSA) inhibited here the binding of [^3H]alkyl-paf to “OMIH”-platelets after three washes (FIG. 2 A+B). […] Normolipidemic platelets do nearly not incorporate [^3H]alkyl-paf or [^3H]alkyl-lyso paf and form nearly no AAGPC and LA-paf in the presence of Ginkgoloides and free albumin (FIG. 2C).
AAGPC and LA-paf are chemically alkyl-acyl-sn-glycero-phosphocholines. […] Values are fmol per 10^8 platelets and are means±1 S.D. from three different experiments as described (R. Korth et al. Chem. Phys. Lipids 70(1994), 109-119).

[3] = system: metabolic syndrome mediated by LA-paf; settings: Wu et al. J. Int. Med. 246, 1999; cited from earlier work
[4] = biological target: T1, paf receptors of formaldehyde-treated platelets; test: Binding of [3H]acetyl paf to formaldehyde-fixed platelets at 4° C. (FIG. 5); settings: unlabeled paf 50 nM, [3H]acetyl paf 0.65 nM or 0.065 nM
Experimental: (FIG. 5D versus 5C). The allosteric alkyl effects are inhibited by stiffening of the membrane so that the scavenger-like allosteric configuration change of cells is shown as mentioned before. In contrast, the [^3H]acetyl group of paf binds at 4° C. to fixed cells treated prior to the last wash with formaldehyde to be subsequently cooled and stiffened (1%, 30 min, A+B). The acetyl group binds and covers paf receptors without allosteric upregulation so that acetylating compounds are using this effect in accordance with the invention.
as §1
Unlabeled paf (50 nM) competed showing specific binding of [^3H]acetyl paf. […] Next, [^3H]alkyl-paf failed binding to stiffened platelets at 4° C. showing moderate specific binding only at 20° C. (C: 0.65 nM, 30 min, 20° C.). […] Values are expressed as bound labelled ligands to 10^8 platelets. Platelets were separated with vacuum filtration and means±1 S.D. are from three experiments.

[5] = system: human neutrophils; test: Formation of labeled AAGPC+LA-paf by neutrophils (FIG. 4); type: cell-based; settings: 0.25% BSA
Experimental: The non-differentiated washed blood leukocytes incorporate here [^3H]alkyl-paf with intermediate of [^3H]alkyl-lyso paf and form alkyl lipids (AAGPC+LA paf) in a saturated manner (A: 0.65 nM vs. B: 6.5 nM) wherein unlabelled paf fails to replace (B, 5 nM). Thus, at least one non-specific transport protein is indicated (e.g. acetylhydrolase) on undifferentiated cells. The less differentiated cells are invented here as a model for monocytes, endothelial cells, glia cells, cartilage cells, adipocytes, endogenous stem cells etc. The acetylhydrolases on plasma membranes of leukocytes remove alkyl lipids and these cells are then pre-activated, differentiated and ready to emigrate. Non-specific antagonists e.g. free albumin protect against alkyl ligands and compete with cells for binding of alkyl lipids. The fatty decline of cells in the entire organisms is clinically healed here. […]
Washed intact cells were incubated with normal or excess concentrations of [^3H]-alkyl-paf forming then the stable amount of AAGPC & LA (A: 0.65 nM or B: 6.5 nM). […] Values are expressed as percent of added label (2.5×10^6 cells/500μl, 0.25% BSA, n=3, see R.-M. Korth, Int. Arch. All. Imm. 113, p 460-464, 1997). […]

[6] = system: intact human platelets; test: Lipoprotein-triggered catabolism of [3H]alkyl-paf and formation of AAGPC and LA-paf by intact platelets (FIG. 3); type: cell-based; settings: FIG. 3 C+D; [3H]alkyl-paf 0.65 nM; apo B 0.1 mg/ml, VLDL 80 μg/ml
Experimental: Only LDL but not ApoB and not VLDL overcome the protection by albumin (FIG. 3E versus 3D). […] In the presence (A+C) or absence (B) of washed platelets nearly no AAGPC with derivatives and products is formed. The acetylhydrolases form lyso paf and LDL, of apoB and VLDL also form lyso paf whereby the uptake of lyso paf is triggered by LDL.
[^3H]alkyl-lyso paf was stable in the albumin buffer as well (B: 0.25% BSA, 30 min, 20° C.). […] Overall, purified LDL-particles rather than isolated apoB trigger uptake and formation of AAGPC and/or LA-paf. Values are expressed as percent of added label bound to platelets. Cells were separated using vacuum filtration as described (R. Korth et al. Chem. Phys. Lipids 70, 109-119, 1994). Values were expressed as percent of added label. Values are means±1.S.D. of three different experiments.

T1 sequence (P25105 whole entry): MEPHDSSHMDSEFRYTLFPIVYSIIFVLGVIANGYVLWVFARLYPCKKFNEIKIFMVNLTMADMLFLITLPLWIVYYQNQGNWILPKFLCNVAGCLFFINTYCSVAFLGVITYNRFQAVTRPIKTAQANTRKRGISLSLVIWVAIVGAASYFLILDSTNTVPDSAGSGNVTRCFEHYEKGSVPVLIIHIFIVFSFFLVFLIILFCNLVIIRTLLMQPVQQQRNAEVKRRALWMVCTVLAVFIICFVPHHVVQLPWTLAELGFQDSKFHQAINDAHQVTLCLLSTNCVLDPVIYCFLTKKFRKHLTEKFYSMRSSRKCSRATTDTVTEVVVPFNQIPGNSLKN

- inhibition of bound [3H]alkyl-paf ([1]; FIG. 6, platelets treated with formaldehyde 1%, 30 min 20° C.): concentration-dependent inhibition
Compound: CC1C(=O)OC2C(O)C34C5CC(C(C)(C)C)C36C(OC(=O)C6O)OC4(C(=O)O5)C12O (stereo not drawn) [BN 52021]

- inhibition of bound [3H]alkyl-paf to stiffened platelets [1]: inhibited
Compound: Cc1nnc2n1-c1sc(CCC(=O)N3CCOCC3)cc1C(c1ccccc1Cl)=NC2 [WEB 2086]
- formation of cellular metabolites (AAGPC, LA-paf) from [3H]-alkyl-lyso paf [2]: without relevant formation of indicated cellular metabolites
- treatment of metabolic syndrome with thickening of the intima and borderline hypertension [3]: successfully treated

Compound: CCCCCCCCCCCCCCCCOC[C@H](COP(=O)([O-])OCC[N+](C)(C)C)OC(C)=O [synthetic paf]
- inhibition of bound [3H]alkyl-paf to stiffened platelets [1]: inhibited at low concentrations
- competition with [3H]acetyl paf binding [4]: competed
- competition with formation of AAGPC/LA-paf ([5]; unlabeled paf 5 nM, [3H]-alkyl-paf 0.65 nM or 6.5 nM, n=3): did not compete

Compound: ApoB: isolated apo B (Sigma Chemical)
- formation of lyso paf and cellular uptake [6]: form lyso paf without cellular uptake

Compound: Purified albumin: free, delipidated albumin (BSA), representative non-specific antagonist
- protection of intact cells as non-specific antagonist [5]: protected
